Assay results taken from PMC8032624, “Prediction of dose-dependent in vivo acetylcholinesterase inhibition by profenofos in rats and humans using physiologically based kinetic (PBK) modeling-facilitated reverse dosimetry” (Archives of Toxicology, 2021).

Columns and labels:
[1] = test system: AChE; experiment: PBK modeling-facilitated reverse dosimetry and BMD modelling of predicted AChE inhibition in rats; set-up: species or system rat
Excerpt: (§1) In the present study, it was assumed that in vivo dose-dependent AChE inhibition (in blood) depends on the maximum concentration (Cmax) of profenofos reached in the blood. For adequate PBK modeling-facilitated reverse dosimetry, the active (unbound) concentration of a test chemical in the in vitro test system should be linked to the in vivo freely available chemical at the target site. This is important since it is assumed that it is the fraction unbound that causes the effect (AChE inhibition). In the in vitro incubations, a very low concentration of BSA (0.1 mg/mL) is present. Heilmair et al. ([2008]) reported that with such low BSA concentrations, the free concentration of chlorpyrifos oxon is not affected. Furthermore, Rosenfeld and Sultatos ([2006]) found no evidence of binding of paraoxon by BSA even at a higher concentration (1 mg/ml) during incubations. Based on these observations, no significant effect on the free fraction of profenofos in the in vitro AChE inhibition studies is expected, which corroborated with estimations on profenofos binding in the in vitro incubations with help of the online simcyp tool (https://www.certara.com/software/pbpk-modeling-and-simulation/).
By calculating with the PBK model, the external dose required to reach (as unbound Cmax) the concentrations applied in the in vitro test, each in vitro concentration was translated into an in vivo dose. In this way, the concentration–response curves for rat and human AChE inhibition were converted into in vivo dose–response curves for profenofos-induced AChE inhibition in rats and humans, respectively.
To evaluate the performance of the PBK modeling-facilitated reverse dosimetry approach to predict in vivo AChE inhibition, the predicted dose–response curve for rat AChE inhibition upon exposure to profenofos was compared with available in vivo data on AChE inhibition in rats (JMPR [2007]). […]

[2] = test system: AChE; experiment: PBK modeling-facilitated reverse dosimetry and BMD modelling of predicted AChE inhibition in humans; set-up: species or system human
Excerpt: as §1
By calculating with the PBK model, the external dose required to reach (as unbound Cmax) the concentrations applied in the in vitro test, each in vitro concentration was translated into an in vivo dose. […]

[3] = test system: brain AChE; experiment: In vivo brain AChE inhibition in rats, single exposure (JMPR); conditions: rat
Excerpt: To evaluate the performance of the PBK modeling-facilitated reverse dosimetry approach to predict in vivo AChE inhibition, the predicted dose–response curve for rat AChE inhibition upon exposure to profenofos was compared with available in vivo data on AChE inhibition in rats (JMPR [2007]). Furthermore, the predicted dose–response data were used for BMD modeling, using EFSA PROAST version 69.0 (https://shiny-efsa.openanalytics.eu/app/bmd) using the model averaging approach to allow evaluation of the prediction by comparison of BMDL10 values obtained from the predicted dose–response data to points of departure derived by regulatory bodies (EPA [2016]; JMPR [2007], EFSA [2019]). To that end, the obtained BMDL10 values were compared with a reported BMDL10 value from a rat study on profenofos-induced RBC AChE inhibition, which was recently used to obtain an ARfD by the US EPA (EPA [2016]), and a reported NOAEL value on profenofos-induced rat brain acetylcholinesterase inhibition, which has been used to obtain an ARfD by JMPR ([2007]).

[4] = test system: RBC AChE; conditions: adult rats, single exposure; ref EPA [2016]; cited from earlier work
[5] = test system: brain cholinesterase; conditions: based on NOAEL in a dog study, brain cholinesterase inhibition; ref EFSA [2019]; cited from earlier work
[6] = target: AChE (Homo sapiens, UniProt P22303); experiment: In vitro inhibition of human recombinant AChE (Ellman); assay type: biochemical; set-up: purchased Sigma-Aldrich; conditions: 15-min incubation at 37 °C
Sequence of AChE (Homo sapiens, UniProt P22303) (P22303 32-614): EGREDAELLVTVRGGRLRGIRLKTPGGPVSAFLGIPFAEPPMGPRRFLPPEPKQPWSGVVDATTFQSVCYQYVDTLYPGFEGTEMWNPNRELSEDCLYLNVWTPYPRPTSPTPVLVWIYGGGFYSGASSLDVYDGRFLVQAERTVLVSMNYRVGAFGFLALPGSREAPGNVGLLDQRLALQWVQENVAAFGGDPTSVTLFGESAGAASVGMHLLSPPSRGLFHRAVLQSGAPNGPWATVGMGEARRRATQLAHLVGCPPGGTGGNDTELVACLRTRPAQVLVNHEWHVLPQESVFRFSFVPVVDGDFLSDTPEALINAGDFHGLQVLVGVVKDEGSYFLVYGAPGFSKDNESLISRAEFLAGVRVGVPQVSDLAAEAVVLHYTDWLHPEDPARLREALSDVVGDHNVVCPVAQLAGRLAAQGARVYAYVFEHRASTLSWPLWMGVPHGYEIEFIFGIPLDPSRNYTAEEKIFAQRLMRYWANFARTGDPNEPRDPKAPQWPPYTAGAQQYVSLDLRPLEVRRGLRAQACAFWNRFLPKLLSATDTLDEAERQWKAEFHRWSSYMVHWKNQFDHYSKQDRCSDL
Method: To perform reverse dosimetry of in vitro AChE inhibition by profenofos, first the in vitro AChE activity in the absence or presence of increasing concentrations of profenofos was determined. For humans, commercially available recombinant AChE was used. For rats, no commercially available recombinant AChE was available, so rat AChE was obtained from rat blood as described below.
AChE inhibition was determined following the protocol of Ellman et al. ([1961]) as modified by Chambers and Chambers ([1989]). The concentration of acetylthiocholine and recombinant AChE were optimized to be linear for metabolite formation (data not shown). Human recombinant AChE was dissolved in 0.1 M sodium phosphate (pH 7.4) containing 1 mg/ml BSA (which was present to stabilize human recombinant AChE (Rosenfeld and Sultatos [2006])) to reach an enzyme concentration of 200 U/ml. Subsequently, the AChE enzyme solution was further diluted with 0.1 M sodium phosphate (pH 7.4) containing 1 mg/ml BSA to a working concentration of 1 U/ml. […] Subsequently, the time-dependent increase in absorbance due to formation of chromophore (DTNB + thiocholine) was measured at 37 °C using a wavelength of 412 nm during a period of 10 min, using a spectrophotometer (SpectraMax, Molecular Devices, UK).
AChE activity was expressed as enzyme activity (percent of control). […]

Structure (SMILES): CCCSP(=O)(OCC)Oc1ccc(Br)cc1Cl (centres unmarked) [profenofos, O-(4-bromo-2-chlorophenyl) O-ethyl S-propyl phosphorothioate]
- JMPR NOAEL relative to BMDL10 from predicted rat dose-response data [1]: 200 fold
- Predicted rat BMDL10 relative to EFSA ARfD [1]: ~ 100 fold
- US EPA BMDL10 relative to BMDL10 from predicted rat dose-response data [1]: 4 times
- Interspecies difference in predicted BMDL10 (rat vs human) [2]: 45 fold
- JMPR NOAEL relative to US EPA BMDL10 [3]: 50 fold
- BMDL10 for RBC AChE inhibition [4]: 1.99 mg/kg bw
- ARfD [5]: 0.005 mg/kg bw
- IC50 [6]: 302 nM
